Results published in PMC8584173, “The Cytotoxic Effect of Copper (II) Complexes with Halogenated 1,3-Disubstituted Arylthioureas on Cancer and Bacterial Cells” (International Journal of Molecular Sciences, 2021).

Columns and labels:
[1] = test system: hospital S. epidermidis (MRSE); test: MIC, hospital S. epidermidis; assay type: cell-based, Staphylococcus epidermidis; settings: S. epidermidis 424, 471, 511, 515 and 431–433 isolates
Protocol: (§1) The antimicrobial activity of the compounds was tested on Gram-positive bacteria (Staphylococcus aureus NCTC 4163, Staphylococcus aureus ATCC 25923, Staphylococcus aureus ATCC 6538, Staphylococcus aureus ATCC 29213, Staphylococcus epidermidis ATCC 12228, Staphylococcus epidermidis ATCC 35984), Gram-negative rods (Escherichia coli ATCC 10538, Escherichia coli ATCC 25922, Pseudomonas aeruginosa ATCC 15442, Pseudomonas aeruginosa ATCC 27863) and yeasts (Candida albicans ATCC 10231, Candida albicans ATCC 90028, Candida parapsilosis ATCC 22019). Hospital methicillin-resistant strains of Staphylococcus aureus and Staphylococcus epidermidis were obtained from the collection of the Department of Pharmaceutical Microbiology, Medical University of Warsaw, Poland.
(§2) Antifungal activities were assessed using Mueller–Hinton agar + 2% glucose and 0.5 µg/mL methylene blue dye medium. Sterile filter paper discs (9 mm diameter, Whatman Number 3 chromatography paper) were dripped with tested compound solutions (in dimethylsulfoxide, DMSO) to load 400 μg of a given compound per disc. Dry discs were placed on the surface of appropriate agar medium. The results (diameter of the growth inhibition zone) were read after 18 h of incubation at 35 °C. Minimal inhibitory concentration (MIC) was tested by the twofold serial microdilution method (in 96-well microtiter plates) using Mueller–Hinton broth medium (Beckton Dickinson) for bacteria or RPMI-1640 medium for Candida species, according to CLSI guidelines. The stock solution of tested agent was prepared in DMSO and diluted in sterile water. […] The final inoculum of all studied microorganisms was 10^5 CFU/ mL^−1 (colony forming units per ml). Minimal inhibitory concentrations (the lowest concentration of a tested agent that prevents visible growth of a microorganism) were read after 18 h (bacteria) or 24 h (yeasts) of incubation at 35 °C.

SW620 cells = test: Annexin V-FITC/PI flow cytometry, SW620; assay type: cell-based, human; settings: SW620, IC50 dose, 72 h
Protocol: The cells were cultured and harvested under the conditions described in the cell culture section. […] The effect of these compounds on the process of early and late apoptosis and necrosis was determined, as described previously, by dual staining with annexin V-FITC and propidium iodide according to manufacturer’s protocol (Becton Dickinson). The cells that were annexin V-FITC positive and PI-negative were identified as early apoptotic and annexin V-FITC and PI-positive as late apoptotic or necrotic.

[2] = test system: SW480 (human primary colon cancer); test: MTT cytotoxicity assay, SW480; assay type: cell-based; settings: SW480, 72 h
Protocol: The human primary (SW480), metastatic (SW620) colon cancer, metastatic prostate cancer (PC3) and human immortal keratinocyte (HaCaT) cell lines were purchased from the American Type Culture Collection (ATCC, Rockville, USA). The cells were cultured in medium according to protocols (MEM for SW480 and SW620, RPMI 1640 for PC3 and DMEM for HaCaT cells) supplemented with 10% fetal bovine serum (FBS), penicillin (100 U/mL) and streptomycin (100 μg/mL) and cultured in 37 °C/ 5% CO2 humidified incubator. The cells were cultured until appropriate confluence was achieved (80–90%). Next, they were harvested by treatment with 0.25% trypsin (Gibco Life Technologies, USA) and used for studies.
Cells without studied compounds in medium were used as a control.
The cell viability was assessed by determination of MTT salt (3-(4,5-dimethylthiazol-2-yl)-2,5-diphenyltetrazolium bromide) conversion by mitochondrial dehydrogenase. MTT assay was performed as previously described. Experiments were repeated three times. Cell viability was presented as a percentage of MTT reduction in the treated cells versus the control cells. Number of viable cells cultured without studied compounds was assumed to be 100%. Decreased relative MTT level means decreased cell viability. Thiourea complexes with the highest cytotoxic potential assessed by MTT determination (with the lowest IC50) were chosen for subsequent assessments of cytotoxicity mechanisms.

S. aureus 481 = test: MIC, hospital MRSA strain; assay type: cell-based, Staphylococcus aureus
Protocol: as §1, §2

S. aureus 572 = test: MIC, hospital MRSA strain; assay type: cell-based, Staphylococcus aureus
Protocol: as §1, §2

S. aureus 573 = test: MIC, hospital MRSA strain; assay type: cell-based, Staphylococcus aureus; settings: hospital MRSA S. aureus 573
Protocol: as §1, §2

S. aureus 497 = test: MIC, hospital MRSA strain; assay type: cell-based, Staphylococcus aureus; settings: hospital MRSA S. aureus 497
Protocol: as §1, §2

S. aureus 567 = test: MIC, hospital MRSA strain; assay type: cell-based, Staphylococcus aureus; settings: hospital MRSA S. aureus 567
Protocol: as §1, §2

S. aureus 585 = test: MIC, hospital MRSA strain; assay type: cell-based, Staphylococcus aureus; settings: hospital MRSA S. aureus 585
Protocol: as §1, §2

S. aureus 522 = test: MIC, hospital MRSA strain; assay type: cell-based, Staphylococcus aureus; settings: hospital MRSA S. aureus 522
Protocol: as §1, §2

S. aureus 514 = test: MIC, hospital MRSA strain; assay type: cell-based, Staphylococcus aureus; settings: hospital MRSA S. aureus 514
Protocol: as §1, §2

S. aureus 496 = test: MIC, hospital MRSA strain; assay type: cell-based, Staphylococcus aureus; settings: hospital MRSA S. aureus 496
Protocol: as §1, §2

S. aureus 586 = test: MIC, hospital MRSA strain; assay type: cell-based, Staphylococcus aureus; settings: hospital MRSA S. aureus 586
Protocol: as §1, §2

S. aureus 568 = test: MIC, hospital MRSA strain; assay type: cell-based, Staphylococcus aureus; settings: hospital MRSA S. aureus 568
Protocol: as §1, §2

S. aureus 498 = test: MIC, hospital MRSA strain; assay type: cell-based, Staphylococcus aureus; settings: hospital MRSA S. aureus 498
Protocol: as §1, §2

S. aureus 495 = test: MIC, hospital MRSA strain; assay type: cell-based, Staphylococcus aureus; settings: hospital MRSA S. aureus 495
Protocol: as §1, §2

S. aureus 537 = test: MIC, hospital MRSA strain; assay type: cell-based, Staphylococcus aureus; settings: hospital MRSA S. aureus 537
Protocol: as §1, §2

`O=[N+]([O-])c1cc([N+]2=C(Nc3ccc(I)cc3)[S][Cu-2]23[S]C(Nc2ccc(I)cc2)=[N+]3c2ccc(Cl)c([N+](=O)[O-])c2)ccc1Cl` [Compound 8, Copper (II) complex with 1-(4-iodophenyl)-3-(4-chloro-3-nitrophenyl)thiourea] was tested, and the “times more effective than the reference chemotherapeutic (ciprofloxacin)” value [1] was 2–16 times, the “early apoptosis, % of cells” value (SW620 cells) was “approximately 20%” and the IC50 [2] was 3.9 ± 0.8 µM. For the same molecule, the “times more active than ciprofloxacin” value (S. aureus 481; S. aureus 481) was 64 times, the MIC (S. aureus 481; hospital MRSA S. aureus 481) was 4 µg/mL and the “times more active than ciprofloxacin” value (S. aureus 572; S. aureus 572) was 64 times. For the same molecule, the MIC (S. aureus 572; hospital MRSA S. aureus 572) was 4 µg/mL, the MIC (S. aureus 573) was 8 µg/mL and the MIC (S. aureus 497) was 8 µg/mL. It also gave an MIC (S. aureus 567) of 8 µg/mL, an MIC (S. aureus 585) of 8 µg/mL and an MIC (S. aureus 522) of 4 µg/mL. It also gave an MIC (S. aureus 514) of 4 µg/mL, an MIC (S. aureus 496) of 8 µg/mL and an MIC (S. aureus 586) of 8 µg/mL. It also gave an MIC (S. aureus 568) of 8 µg/mL, an MIC (S. aureus 498) of 8 µg/mL and an MIC (S. aureus 495) of 4 µg/mL. For the same molecule, the MIC (S. aureus 537) was 8 µg/mL.
